# Data: patent US8173376B2, “Method for identifying compounds for treatment of pain” (Universite Laval, priority 2003, dated 2012)
# Entries after “also recorded” stand apart in the source; their conditions may differ.
# B1: BDNF: brain-derived neurotrophic factor, activator of TrkB, bath applied (protein, UniProt P23560 19-247, looked up)
# Neurotrophic factor BDNF …: APMKEANIRGQGGLAYPGVRTHGTLESVNGPKAGSRGLTSLADTFEHVIEELLDEDQKVRPNEENNKDADLYTSRVMLSSQVPLEPPLLFLLEEYKNYLDAANMSMRVRRHSDPARRGELSVCDSISEWVTAADKKTAVDMSGGTVTVLEKVPVSKGQLKQYFYETKCNPMGYTKEGCRGIDKRHWNSQCRTTQSYVRALTMDSKKRIGWRFIRIDTSCVCTLTIKRGR
# B2: human recombinant BDNF: human recombinant BDNF for local spinal delivery (protein, UniProt P23560 19-247, looked up)
# Neurotrophic factor BDNF …: B1 Neurotrophic factor BDNF …
# Legend:
# [1] = system: voltage sensitive Ca2+ channels (VSCCs) and NMDA receptor/channels; details: cited from earlier work; for Efficacy in the treatment of neuropathic pain: humans
# lamina I (LI) neurons = assay: Calcium imaging (fura-2-AM) of GABA-evoked [Ca2+]i rise in lamina I neurons in spinal cord slices; type: cell-based, rat
# lamina I neurons = assay: Anion reversal potential (Eanion) by gramicidin-D perforated-patch voltage-clamp recording in dorsal horn slices; type: cell-based, rat
# Sprague-Dawley rats [2] = details: intrathecal, at the doses used
# Sprague-Dawley rats [3] = assay: Tactile/mechanical nociceptive withdrawal threshold (von Frey) after intrathecal delivery; type: in vivo, rat; details: for Nociceptive threshold for mechanical stimulation: intrathecal, 10 μg/day x 6 days
# KCC2 = assay: Immunoblot of spinal KCC2 protein after intrathecal oligodeoxynucleotide treatment; type: in vivo, rat; details: naïve rats, antisense 12 h or 36 h
# GlyRs and GABAARs = assay: Whole-cell recording of miniature postsynaptic currents (mPSCs) and GABA-evoked responses in LI neurons; type: cell-based, rat; details: LI neuron, p>0.5
# Sprague-Dawley rats [4] = assay: Thermal nociceptive withdrawal latency after intrathecal injection; type: in vivo, rat; details: intact naïve rats, DIOA 15-30 μg intrathecal
# [5] = lamina I neurons from naïve rats, 50 ng/ml in bath
molecule,measurement,setting,value
CNC1(c2ccccc2Cl)CCCCC1=O (stereo not shown) [ketamine],Efficacy in the treatment of neuropathic pain,[1],highly efficacious
same,Side effects,[1]; use of Ca2+ channel blockers / NMDA antagonists,many undesirable side effects
NC1=N[C@H](O)[C@H]2[C@H]3O[C@]4(O)O[C@@H]([C@@H](O)[C@@]2(N1)[C@@H]4O)[C@]3(O)CO [tetrodotoxin],Block of GABA-evoked [Ca2+]i responses,lamina I (LI) neurons,blocked
COC(=O)[C@@]1(O)C[C@H]2O[C@]1(C)n1c3ccccc3c3c4c(c5c6ccccc6n2c5c31)C(=O)NC4 [K-252a],Change of Eanion,"lamina I neurons; lamina I neurons from PNI rats, K-252a 200 nM in bath",hyperpolarization of the Eanion to a level similar to that observed in lamina I neurons taken from naïve rats; also recorded: significant hyperpolarization
same,Motor disturbances or sedation,Sprague-Dawley rats [2],did not produce any motor disturbances or sedation
same,Threshold for tactile nociceptive withdrawal,"Sprague-Dawley rats [3]; PNI rats, K-252a 6 nM intrathecal, vs vehicle",increase
KN-93,Change of Eanion,"lamina I neurons; lamina I neurons from PNI rats, KN-93 5 μM in bath",significant hyperpolarization
"5′-TCTCCTTGGGATTGCCGTCA-3′ (DNA, all phosphorothioate, methylation of C not given here) [KCC2 antisense oligodeoxynucleotide]",Spinal KCC2 protein levels (immunoblots),KCC2,Decrease
same,Tactile nociceptive withdrawal threshold,"Sprague-Dawley rats [3]; naïve rats, intrathecal antisense each 12 h (0 h, 12 h, 24 h), vs scrambled oligodeoxynucleotide",significant decrease
CCCCC1(C2CCCC2)Cc2cc(OCC(=O)O)c(Cl)c(Cl)c2C1=O (stereo not shown) [DIOA],Effect on peak conductance of synaptic events (mPSCs),"GlyRs and GABAARs; CsCl pipette, Eanion clamped at 0 mV, n=4 neurons x 50 mPSCs",neither affected
same,Effect on GABA-evoked responses,GlyRs and GABAARs; n=5,neither affected
same,Nociceptive threshold to thermal stimuli (withdrawal latency),Sprague-Dawley rats [4],rapid and reversible decrease
same,LI neurons showing an increase in [Ca2+]i on GABA application,"lamina I (LI) neurons; naïve rat spinal slices, bath applied DIOA 30 μM",30%
same,Proportion of LI neurons displaying a GABA-evoked increase in [Ca2+]i (in words),"lamina I (LI) neurons; naïve rats, in the presence of DIOA, χ2 corrected=4.43",significantly higher
same,Nociceptive threshold to mechanical stimuli,"Sprague-Dawley rats [3]; intact naïve rats, DIOA 15-30 μg intrathecal",rapid and reversible decrease
NCC1(CC(=O)O)CCCCC1 [gabapentin],Efficacy in the treatment of neuropathic pain,[1],highly efficacious
O=S(=O)(NCCNC/C=C/c1ccc(Br)cc1)c1cccc2cnccc12 [H-89],Change of Eanion,"lamina I neurons; lamina I neurons from PNI rats, H-89 15 in bath",significant hyperpolarization
same,Nociceptive threshold to mechanical stimulation,"Sprague-Dawley rats [3]; H-89 380 nmol local spinal delivery, vs vehicle",increase
"NGF: nerve growth factor, activator of TrkA, bath applied",Change of Eanion,lamina I neurons; [5],significantly depolarized; also recorded: significant depolarization
human recombinant NGF: human recombinant NGF for intrathecal delivery,Nociceptive threshold for mechanical stimulation,Sprague-Dawley rats [3]; naïve rats,very similar decrease
B1,Change of Eanion,lamina I neurons; [5],significantly depolarized; also recorded: significant depolarization
B2,Nociceptive threshold for mechanical stimulation,Sprague-Dawley rats [3]; naïve rats,significant decrease
